Measurements as given in US20240270740A1, “INHIBITORS OF CYCLIC GMP-AMP SYNTHASE AND USES THEREOF” (Ventus Therapeutics U.S., Inc., priority 2022, published 2024).

Tests used:
hcGAS [1] = target: T1, hcGAS (Homo sapiens, UniProt Q8N884); assay: hcGAS LCMS assay (direct measurement of cGAMP production); type: biochemical; conditions: 0.5 nM hcGAS, 100 μM ATP, 100 μM GTP, 25 nM dsDNA, 4 h incubation
Procedure, shortened: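 Direct LC/MS readout of cGAMP formed: 4-h enzyme–substrate incubation with compound, stopped by acetonitrile/water quench carrying isotope-labelled cGAMP (0.15 mM) as standard. Potency reported as IC50 ranges.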

hcGAS [2] = target: T1, hcGAS; assay: hcGAS Kinase-Glo assay (ATP depletion); type: biochemical; conditions: 40 nM hcGAS, 100 μM ATP, 100 μM GTP, 25 nM dsDNA, 3 h incubation
Procedure, shortened: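 Human cGAS activity measured indirectly as ATP depletion by Kinase-Glo luminescence, following the Lama et al. method with modified conditions. Output is IC50, binned into potency categories.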

T1 sequence (Q8N884 whole entry): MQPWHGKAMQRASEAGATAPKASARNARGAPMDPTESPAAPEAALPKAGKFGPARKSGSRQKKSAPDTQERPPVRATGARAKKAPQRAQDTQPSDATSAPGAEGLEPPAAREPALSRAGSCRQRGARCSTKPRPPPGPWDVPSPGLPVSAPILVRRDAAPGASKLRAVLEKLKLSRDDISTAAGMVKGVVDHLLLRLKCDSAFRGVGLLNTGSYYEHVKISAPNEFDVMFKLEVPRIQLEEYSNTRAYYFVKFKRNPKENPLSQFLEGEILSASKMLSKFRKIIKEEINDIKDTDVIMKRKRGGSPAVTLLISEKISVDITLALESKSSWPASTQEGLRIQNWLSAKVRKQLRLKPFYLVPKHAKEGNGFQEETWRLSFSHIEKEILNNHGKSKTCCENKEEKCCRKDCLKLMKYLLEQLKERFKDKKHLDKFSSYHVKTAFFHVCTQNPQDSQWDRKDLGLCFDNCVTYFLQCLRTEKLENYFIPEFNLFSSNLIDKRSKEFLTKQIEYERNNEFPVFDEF

Row | Compound | IC50 (hcGAS [1]) | IC50 (hcGAS [2])
1 | COc1c(N[C@H]2CC[C@H](OC)CC2)cc(C(=O)Nc2nnc(-n3nccc3C)s2)oc1=O [Compound 11, 3-methoxy-4-(((1,4-trans)-4-methoxycyclohexyl)amino)-N-(5-(5-methyl-1H-pyrazol-1-yl)-1,3,4-thiadiazol-2-yl)-2-oxo-2H-pyran-6-carboxamide] | 20 to 60 nM | 10 to 30 nM
2 | COC[C@@H](C)Nc1cc(C(=O)Nc2nnc(-n3nccc3C)s2)oc(=O)c1OC [Compound 121, (R)-3-methoxy-4-((1-methoxypropan-2-yl)amino)-N-(5-(5-methyl-1H-pyrazol-1-yl)-1,3,4-thiadiazol-2-yl)-2-oxo-2H-pyran-6-carboxamide] | 5 to 20 nM | 10 to 30 nM
3 | COc1c(N[C@@H]2CC[C@H]2OC)cc(C(=O)Nc2nnc(-n3nccc3C)s2)oc1=O (racemic) [Rac-36, 3-methoxy-4-(((1R,2R)-2-methoxycyclobutyl)amino)-N-(5-(5-methyl-1H-pyrazol-1-yl)-1,3,4-thiadiazol-2-yl)-2-oxo-2H-pyran-6-carboxamide] | 5 to 20 nM | 10 to 30 nM
4 | COc1c(NC(C)C)cc(C(=O)Nc2nnc(-n3nccc3C)s2)oc1=O [Compound 179, 4-(isopropylamino)-5-methoxy-N-[5-(5-methylpyrazol-1-yl)-1,3,4-thiadiazol-2-yl]-6-oxopyran-2-carboxamide] | 5 to 20 nM | 30 to 100 nM
5 | COc1c(N2C[C@H](OC)[C@@H](O)C2)cc(C(=O)Nc2nnc(-n3nccc3C)s2)oc1=O (racemic) [Rac-91, 4-((3S,4S)-3-hydroxy-4-methoxypyrrolidin-1-yl)-3-methoxy-N-(5-(5-methyl-1H-pyrazol-1-yl)-1,3,4-thiadiazol-2-yl)-2-oxo-2H-pyran-6-carboxamide] | 5 to 20 nM | < 10 nM
6 | COc1c(N2CC[C@@H](O)C2)cc(C(=O)Nc2nnc(-n3nccc3C)s2)oc1=O [Compound 30, (R)-4-(3-hydroxypyrrolidin-1-yl)-3-methoxy-N-(5-(5-methyl-1H-pyrazol-1-yl)-1,3,4-thiadiazol-2-yl)-2-oxo-2H-pyran-6-carboxamide] | 5 to 20 nM | 10 to 30 nM
7 | COc1c(N[C@H]2CCOC2)cc(C(=O)Nc2nnc(-n3nccc3C)s2)oc1=O [Compound 185, (S)-3-methoxy-N-(5-(5-methyl-1H-pyrazol-1-yl)-1,3,4-thiadiazol-2-yl)-2-oxo-4-((tetrahydrofuran-3-yl)amino)-2H-pyran-6-carboxamide] | 5 to 20 nM | 30 to 100 nM
8 | COc1c(NC[C@@H](C)OC)cc(C(=O)Nc2nnc(-n3nccc3C)s2)oc1=O [Compound 119, (R)-3-methoxy-4-((2-methoxypropyl)amino)-N-(5-(5-methyl-1H-pyrazol-1-yl)-1,3,4-thiadiazol-2-yl)-2-oxo-2H-pyran-6-carboxamide] | 5 to 20 nM | 10 to 30 nM
9 | COc1c(NC[C@@H]2CCCO2)cc(C(=O)Nc2nnc(-n3nccc3C)s2)oc1=O [Compound 66, (S)-3-methoxy-N-(5-(5-methyl-1H-pyrazol-1-yl)-1,3,4-thiadiazol-2-yl)-2-oxo-4-(((tetrahydrofuran-2-yl)methyl)amino)-2H-pyran-6-carboxamide] | 5 to 20 nM | 10 to 30 nM
10 | COc1c(NCC(C)(C)O)cc(C(=O)Nc2nnc(-n3nccc3C)s2)oc1=O [Compound 33, 4-(2-hydroxy-2-methylpropylamino)-5-methoxy-N-(5-(5-methyl-1H-pyrazol-1-yl)-1,3,4-thiadiazol-2-yl)-6-oxo-6H-pyran-2-carboxamide] | 20 to 60 nM | 10 to 30 nM
11 | COc1c(N[C@H]2CC[C@@H](OC)C2)cc(C(=O)Nc2nnc(-n3nccc3C)s2)oc1=O (racemic) [Rac-108, 3-methoxy-4-(((cis)-3-methoxycyclopentyl)amino)-N-(5-(5-methyl-1H-pyrazol-1-yl)-1,3,4-thiadiazol-2-yl)-2-oxo-2H-pyran-6-carboxamide] | 5 to 20 nM | 10 to 30 nM
12 | COc1c(N[C@H]2CCC[C@@H]2OC)cc(C(=O)Nc2nnc(-n3nccc3C)s2)oc1=O (racemic) [Rac-107, 3-methoxy-4-(((1S,2S)-2-methoxycyclopentyl)amino)-N-(5-(5-methyl-1H-pyrazol-1-yl)-1,3,4-thiadiazol-2-yl)-2-oxo-2H-pyran-6-carboxamide] | 5 to 20 nM | < 10 nM
13 | COCCNc1cc(C(=O)Nc2nnc(-c3sccc3Cl)s2)oc(=O)c1OC [Compound 146, N-[5-(3-chlorothiophen-2-yl)-1,3,4-thiadiazol-2-yl]-5-methoxy-4-[(2-methoxyethyl)amino]-6-oxopyran-2-carboxamide] | 5 to 20 nM | 10 to 30 nM
14 | COc1c(NCCO)cc(C(=O)Nc2nnc(-n3nccc3C)s2)oc1=O [Compound 130, 4-((2-hydroxyethyl)amino)-3-methoxy-N-(5-(5-methyl-1H-pyrazol-1-yl)-1,3,4-thiadiazol-2-yl)-2-oxo-2H-pyran-6-carboxamide] | 20 to 60 nM | 30 to 100 nM

Second part, the compound after the results:

Row | IC50 (hcGAS [1]) | IC50 (hcGAS [2]) | Compound
15 | 5 to 20 nM | 10 to 30 nM | COc1c(N[C@@H]2CC[C@@H]2O)cc(C(=O)Nc2nnc(-n3nccc3C)s2)oc1=O (racemic) [Rac-43, 4-(((1R,2S)-2-hydroxycyclobutyl)amino)-3-methoxy-N-(5-(5-methyl-1H-pyrazol-1-yl)-1,3,4-thiadiazol-2-yl)-2-oxo-2H-pyran-6-carboxamide]
16 | 5 to 20 nM | 10 to 30 nM | 3-methoxy-4-(((1R,2S)-2-methoxycyclobutyl)amino)-N-(5-(5-methyl-1H-pyrazol-1-yl)-1,3,4-thiadiazol-2-yl)-2-oxo-2H-pyran-6-carboxamide [Rac-67]
17 | < 5 nM | < 10 nM | COc1c(N2CCCC2=O)cc(C(=O)Nc2nnc(-n3nccc3C)s2)oc1=O [Compound 42, 3-methoxy-N-(5-(5-methyl-1H-pyrazol-1-yl)-1,3,4-thiadiazol-2-yl)-2-oxo-4-(2-oxopyrrolidin-1-yl)-2H-pyran-6-carboxamide]
18 | 5 to 20 nM | 10 to 30 nM | COc1c(N2C[C@H](OC)[C@@H](OC)C2)cc(C(=O)Nc2nnc(-n3nccc3C)s2)oc1=O (racemic) [Rac-92, 4-((3S,4S)-3,4-dimethoxypyrrolidin-1-yl)-3-methoxy-N-(5-(5-methyl-1H-pyrazol-1-yl)-1,3,4-thiadiazol-2-yl)-2-oxo-2H-pyran-6-carboxamide]
19 | 5 to 20 nM | 30 to 100 nM | COc1c(NCc2ccccc2)cc(C(=O)Nc2nnc(-n3nccc3C)s2)oc1=O [Compound 103, 4-(benzylamino)-3-methoxy-N-(5-(5-methyl-1H-pyrazol-1-yl)-1,3,4-thiadiazol-2-yl)-2-oxo-2H-pyran-6-carboxamide]
20 | 5 to 20 nM | 10 to 30 nM | COc1c(N2CC[C@H](O)C2)cc(C(=O)Nc2nnc(-n3nccc3C)s2)oc1=O [Compound 110, (S)-4-(3-hydroxypyrrolidin-1-yl)-3-methoxy-N-(5-(5-methyl-1H-pyrazol-1-yl)-1,3,4-thiadiazol-2-yl)-2-oxo-2H-pyran-6-carboxamide]
21 | 5 to 20 nM | < 10 nM | COc1c(NCCO)cc(C(=O)Nc2nnc(-c3c(Cl)ccn3C)s2)oc1=O [Compound 129, N-(5-(3-chloro-1-methyl-1H-pyrrol-2-yl)-1,3,4-thiadiazol-2-yl)-4-((2-hydroxyethyl)amino)-3-methoxy-2-oxo-2H-pyran-6-carboxamide]
22 | < 5 nM | 10 to 30 nM | COc1c(N[C@@H]2CCC[C@@H]2O)cc(C(=O)Nc2nnc(-n3nccc3C)s2)oc1=O (racemic) [Rac-23, 4-(((cis)-2-hydroxycyclopentyl)amino)-3-methoxy-N-(5-(5-methyl-1H-pyrazol-1-yl)-1,3,4-thiadiazol-2-yl)-2-oxo-2H-pyran-6-carboxamide]
23 | 5 to 20 nM | 10 to 30 nM | COCC(COC)Nc1cc(C(=O)Nc2nnc(-n3nccc3C)s2)oc(=O)c1OC [Compound 10, 4-((1,3-dimethoxypropan-2-yl)amino)-3-methoxy-N-(5-(5-methyl-1H-pyrazol-1-yl)-1,3,4-thiadiazol-2-yl)-2-oxo-2H-pyran-6-carboxamide]
24 | 5 to 20 nM | 10 to 30 nM | COc1c(N2C[C@H](O)[C@H](OC)C2)cc(C(=O)Nc2nnc(-n3nccc3C)s2)oc1=O (racemic) [Rac-68, 4-((3S,4R)-3-hydroxy-4-methoxypyrrolidin-1-yl)-3-methoxy-N-(5-(5-methyl-1H-pyrazol-1-yl)-1,3,4-thiadiazol-2-yl)-2-oxo-2H-pyran-6-carboxamide]
25 | 5 to 20 nM | 10 to 30 nM | COc1c(NC23CC(C(C)(C)O)(C2)C3)cc(C(=O)Nc2nnc(-n3nccc3C)s2)oc1=O [Compound 117, 4-((3-(2-hydroxypropan-2-yl)bicyclo[1.1.1]pentan-1-yl)amino)-3-methoxy-N-(5-(5-methyl-1H-pyrazol-1-yl)-1,3,4-thiadiazol-2-yl)-2-oxo-2H-pyran-6-carboxamide]
26 | 5 to 20 nM | 10 to 30 nM | COc1c(N[C@H]2CC[C@@H](O)CC2)cc(C(=O)Nc2nnc(-n3nccc3C)s2)oc1=O [Compound 220]
27 | < 5 nM | < 10 nM | COc1c(NC23CC(C2)C3)cc(C(=O)Nc2nnc(-c3c(Cl)ccn3C)s2)oc1=O [Compound 41, 4-{bicyclo[1.1.1]pentan-1-ylamino}-N-[5-(3-chloro-1-methylpyrrol-2-yl)-1,3,4-thiadiazol-2-yl]-5-methoxy-6-oxopyran-2-carboxamide]
28 | < 5 nM | < 10 nM | COc1c(N[C@@H]2CCC[C@@H]2O)cc(C(=O)Nc2nnc(-n3nccc3C)s2)oc1=O [Compound 112, 4-(((1R,2S)-2-hydroxycyclopentyl)amino)-3-methoxy-N-(5-(5-methyl-1H-pyrazol-1-yl)-1,3,4-thiadiazol-2-yl)-2-oxo-2H-pyran-6-carboxamide]
